Experimental data reported in patent publication US5268361A, “Hydroxyazido derivatives and related compounds as renin inhibitors” (SRI International, priority 1991, dated 1993).

Target: T1, human kidney renin (Homo sapiens, UniProt P00797)
T1 construct: 0.24 mGU human kidney renin; from tissue; host or cells: human kidney
T1 sequence (P00797 67-406): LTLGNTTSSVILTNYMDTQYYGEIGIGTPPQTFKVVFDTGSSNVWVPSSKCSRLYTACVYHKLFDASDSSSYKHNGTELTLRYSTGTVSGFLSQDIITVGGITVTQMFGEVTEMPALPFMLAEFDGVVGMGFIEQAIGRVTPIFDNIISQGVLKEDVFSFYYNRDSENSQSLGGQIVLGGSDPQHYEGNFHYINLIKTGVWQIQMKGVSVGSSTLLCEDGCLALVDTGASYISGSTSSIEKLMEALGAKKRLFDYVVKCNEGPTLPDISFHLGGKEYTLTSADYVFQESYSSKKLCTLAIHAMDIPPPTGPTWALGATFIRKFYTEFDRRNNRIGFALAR
Test: Human renin enzyme assay with angiotensin I radioimmunoassay
Type: biochemical
Settings: angiotensinogen substrate, pH 6.0 maleate buffer, 37° C., 50% reduction in the release of angiotensin I
Description: a. Human Renin Enzyme Assay. The human renin enzyme assay described by Sham et al., J. Med. Chem. 31:284-295 (1988) was carried out by mixing 0.24 mGU human kidney renin, 0.21 αμM of angiotensinogen in 0.135 M, pH 6.0, maleate buffer containing 3 mM EDTA, 1.4 mM PMSF, and 0.44% BSA. The total assay volume was 100 μl. All inhibitors were dissolved in DMSO first and diluted with 0.5% BSA to give the appropriate concentrations for testing. The final DMSO concentration in the assay mixture was kept constant at 1%. […] For assay, 90 μl of the above-mentioned maleate buffer containing the renin and inhibitor was preincubated at 37° C. for 5 min and the reaction was continued for 10 additional min after adding 10 μl of substrate. The reaction was stopped by immersion of all tubes in a dry ice acetone-methanol bath. All samples were thawed to 0.4° C. and an aliquot from each tube was taken for the Angiotensin I RIA assay.
b. Angiotensin I Radioimmunoassay. A 100 μl portions of 5% BSA containing a small aliquot of the above enzyme mixture was mixed with 100 μl of angiotensin I [^125 I] (500 mCi/mg) in 0.1M Tris-acetate buffer, pH 7.4 (one part angiotensin I in 50 parts buffer), and 500 μl of antiserum (the lyophilized powder was reconstituted with 125 ml of 0.1M Tris-acetate buffer, pH 7.4). The mixture was incubated at 4° C. for 18 to 24 h. At the end of the incubation, 1.0 mL of charcoal suspension (600 mg of charcoal in 50 mL of 0.1M Tris-acetate buffer, pH 7.4) was pipetted into each tube. The charcoal suspension was stirred constantly during the transfer. The samples were mixed and then centrifuged at 3000×g for 15 min. The supernatants were transferred into properly numbered tubed for gamma counting.
A reagent blank was carried out with each assay. The blank tube contained 100 μl of 5% bovine serum albumin (BSA), 100 μl of angiotensin I [^125 I], and 500 μl of 0.1M Tris-acetate buffer.
A standard curve was prepared with each set of experiments by mixing various amounts (5 to 0.1 ng/ml) of angiotensin I in 0.1M Tris-acetate buffer containing 5% BSA and the same amounts of ^125 I-angiotensin I and antiserum as for the RIA assay. The tubes containing the standards were treated exactly like those containing the samples. The amount of angiotensin I produced by the enzyme in each sample was calculated using an angiotensin I standard curve.
The whole process of RIA was carried out at 0° to 4° C. to avoid deterioration of antiserum and angiotensin I. Only polystyrene tubes were used. Polystyrene tubes had shown no affinity for antibody under the assay conditions described above.
An IC50 was calculated for each inhibitor tested by conducting the assay in the presence of different concentrations of inhibitor. The inhibitor concentration that caused a 50% reduction in the release of angiotensin I when compared to control (no inhibitor) values was then calculated.

SMILES | IC50 [nM]
CC(C)CC(N=[N+]=[N-])C(O)[C@H](CC(C)C)NC(=O)[C@H](Cc1c[nH]cn1)NC(=O)[C@H](Cc1cccc2ccccc12)NC(=O)OCc1ccccc1 (stereo partly drawn) [Compound I-5b, 4-Azido-6-(S)-[N^α -[N-benzyloxycarbonyl-3-(1-naphthyl)-L-alanyl]-L-histidyl]-amino-2,8-dimethyl-5-nonanol] | 190
CC(C)C[C@H](N=[N+]=[N-])[C@H](O)[C@H](CC(C)C)NC(=O)[C@H](Cc1c[nH]cn1)NC(=O)[C@H](Cc1ccccc1)OC(=O)N1CCOCC1 [III-6, (4S, 5R, 6S)-4-Azido-5-hydroxy-2,8-dimethyl-6-[N^α -(2S-(morpholino-N-carbonyloxy)-3-phenylpropionyl)-L-histidyl]aminononane] | 110
CC(C)C[C@H](N=[N+]=[N-])[C@H](O)[C@H](CC1CCCCC1)NC(=O)[C@H](Cc1c[nH]cn1)NC(=O)[C@H](Cc1ccccc1)NC(=O)CC(C)(C)N [IX-6] | 5.4
CC(C)CC(N=[N+]=[N-])C(=O)C(CC1CCCCC1)NC(=O)[C@H](Cc1c[nH]cn1)NC(=O)[C@H](Cc1ccccc1)OC(=O)N1CCOCC1 (stereo partly drawn) [VII-2, 4-Azido-7-cyclohexyl-2-methyl-5-oxo-6-[N^α -(2S-(morpholino-N-carbonyloxy)-3-phenylpropionyl)-L-histidyl]amino heptane] | 5.1

Other lines, results leading:

IC50 [nM] | SMILES
1.7 | CC(C)C[C@H](N=[N+]=[N-])[C@H](O)[C@H](CC1CCCCC1)NC(=O)[C@H](Cc1c[nH]cn1)NC(=O)[C@H](Cc1ccccc1)OC(=O)N1CCOCC1 [IV-7, (4S, 5R, 6S)-4-Azido-7-cyclohexyl-5-hydroxy-2-methyl-6-[N^α -(2S-(morpholino-N-carbonyloxy)-3-phenylpropionyl)-L-histidyl]aminoheptane]
0.85 | CC(C)C[C@H](N=[N+]=[N-])[C@H](O)[C@H](CC1CCCCC1)NC(=O)[C@H](Cc1c[nH]cn1)NC(=O)/C(=C/c1ccccc1)CC(=O)N1CCOCC1 [VIII-3, (4S, 5R, 6S)-4-Azido-7-cyclohexyl-5-hydroxy-2-methyl-6-[N^α -[(E)-2-[(4-morphorinylcarbonyl)-methyl]cinnamyl]-L-histidyl]aminoheptane]
0.64 | CC(C)C[C@H](N=[N+]=[N-])[C@H](O)[C@H](CC1CCCCC1)NC(=O)[C@H](Cc1c[nH]cn1)NC(=O)C(CC(=O)N1CCOCC1)Cc1ccccc1 (stereo partly drawn) [VI-6b, (4S, 5R, 6S)-4-Azido-6-[N^α -(2-benzyl-3-(morpholino-N-carbonyl)propionyl)-L-histidyl]amino-7-cyclohexyl-5-hydroxy-2-methylheptane]
0.58 | CC(C)C[C@H](N=[N+]=[N-])[C@H](O)[C@H](CC1CCCCC1)NC(=O)[C@H](Cc1c[nH]cn1)NC(=O)[C@H](Cc1ccccc1)NC(=O)N1CCOCC1 [Compound V-4, (4S, 5R, 6S)-4-Azido-7-cyclohexyl-5-hydroxy-2-methyl-6-[N^α -(N-(morpholino-N-carbonyl)L-phenylalanyl)-L-histidyl]aminoheptane]
0.008 | COCCOCCN(C)C(=O)C[C@@H](Cc1ccccc1)C(=O)N[C@@H](Cc1c[nH]cn1)C(=O)N[C@@H](CC1CCCCC1)[C@@H](O)[C@H](CC(C)C)N=[N+]=[N-] [XI-2]
0.006 | CC(C)C[C@H](N=[N+]=[N-])[C@H](O)[C@H](CC1CCCCC1)NC(=O)[C@H](Cc1c[nH]cn1)NC(=O)[C@H](Cc1ccccc1)CS(=O)(=O)C(C)(C)C [Compound X-2b, (4S, 5R, 6S)-4-Azido-7-cyclohexyl-5-hydroxy-2-methyl-6-[N^α -[(S)-2-benzyl-3-(tert-butylsulfonyl)-pripionyl]-L-histidyl]aminoheptane]

Tested on: Cynomolgus monkeys
Test: In vivo efficacy: oral administration to Cynomolgus monkeys, blood pressure monitoring
Settings: salt-depleted, furosemide-pretreated male Cynomolgus monkeys; oral gavage 1.0 mg/kg
Description: b. In vivo efficacy: Oral activity of a number of the compounds of the invention was established by administration to Cynomolgus monkeys, a species known to be susceptible to the antihypertensive effect of renin inhibition. Two male monkeys, young adults approximately 3-6 kg at dosing, were tested over a six-week period. The animal room environment and photoperiod were controlled (temperature approximately 24° C., humidity 50±20%, 12 h light, 12 h dark), as was diet (low salt primate chow, plus discretionary supplements of fruit for at least 7 days prior to dosing). A diuretic (furosemide 1 mg/kg) was given daily by intravenous injection for 7 days prior to dosing.
The compounds of the invention were dissolved in 0.02 N HCl and prepared to the appropriate volume with sterile water. The pH of the solutions were adjusted to approximately 4.0 with 0.02 N NaOH. The solutions were then given orally by an oesophageal gavage at a dose level of 1.0 mg/kg, and a dose volume of 2 mL/kg body weight.
Prior to and following dosing, the animals were connected to an ECG and blood pressure monitor. Systolic, diastolic and mean blood pressure as well as heart rate were measured at 30 second intervals and recorded.

SMILES | Reduction in blood pressure
CC(C)C[C@H](N=[N+]=[N-])[C@H](O)[C@H](CC1CCCCC1)NC(=O)[C@H](Cc1c[nH]cn1)NC(=O)[C@H](Cc1ccccc1)CS(=O)(=O)C(C)(C)C [Compound X-2b, (4S, 5R, 6S)-4-Azido-7-cyclohexyl-5-hydroxy-2-methyl-6-[N^α -[(S)-2-benzyl-3-(tert-butylsulfonyl)-pripionyl]-L-histidyl]aminoheptane] | Reduction in blood pressure was seen within approximately 1 to 6 hours
CC(C)C[C@H](N=[N+]=[N-])[C@H](O)[C@H](CC1CCCCC1)NC(=O)[C@H](Cc1c[nH]cn1)NC(=O)[C@H](Cc1ccccc1)OC(=O)N1CCOCC1 [IV-7, (4S, 5R, 6S)-4-Azido-7-cyclohexyl-5-hydroxy-2-methyl-6-[N^α -(2S-(morpholino-N-carbonyloxy)-3-phenylpropionyl)-L-histidyl]aminoheptane] | Reduction in blood pressure was seen within approximately 1 to 6 hours

Tested on: not given
Test: not given
Settings: animals; from cited publications; cited from earlier work

SMILES | Oral activity
COc1ccc(C[C@H](NC(=O)CC(C)(C)N)C(=O)N[C@@H](Cc2cnc[nH]2)C(=O)N[C@@H](CC2CCCCC2)[C@@H](O)[C@@H](O)CC(C)C)cc1 [Compound A-64662] | orally active in animals
